Reference: patent US8242274B2, “Triazolopyridine kinase inhibitors useful for the treatment of degenerative and inflammatory diseases” (Galapagos NV, priority 2008, dated 2012)
Values belong to the compound of their own block, whether it stands above or below them.

Legend:
[1] = tested on: pSTAT1(2)-luciferase reporter; experiment: JAK-STAT signalling assay (HeLa cells, OSM trigger); type: cell-based; details: human OSM 33 ng/mL
Method: HeLa cells were maintained in Dulbecco's Modified Eagle's Medium (DMEM) containing 10% heat inactivated fetal calf serum, 100 U/mL penicillin and 100 μg/mL streptomycin. HeLa cells were used at 70% confluence for transfection. 20,000 cells in 87 μL cell culture medium were transiently transfected with 40 ng pSTAT1(2)-luciferase reporter (Panomics), 8 ng of LacZ reporter as internal control reporter and 52 ng of pBSK using 0.32 μL Jet-PEI (Polyplus) as transfection reagent per well in 96-well plate format. After overnight incubation at 37° C., 10% CO2, transfection medium was removed. 75 μL of DMEM+1.5% heat inactivated fetal calf serum was added. 15 μL of compound at 6.7× concentration was added for 60 min and then 10 μL of human OSM (Peprotech) at 33 ng/mL final concentration. […]
40 μL of cell lysate was used to read β-galactosidase activity by adding 180 μL βGal solution (30 μl ONPG 4 mg/mL+150 μL β-Galactosidase buffer (0.06 M Na2HPO4, 0.04 M NaH2PO4, 1 mM MgCl2)) for 20 min. The reaction was stopped by addition of 50 μL Na2CO3 1 M. Absorbance was read at 405 nm.
Luciferase activity was measured using 40 μL cell lysate plus 40 μl of Steadylite® as described by the manufacturer (Perkin Elmer), on the Envision (Perkin Elmer). […]

in vivo = details: male, Sprague-Dawley, rat, po
Method: A 7-day oral toxicity study with test compounds was performed in Sprague-Dawley male rats to assess their toxic potential and toxicokinetics, at daily doses of 100, 300 and 500 mg/kg/day, by gavage, at the constant dosage-volume of 5 mL/kg/day.
The test compounds were formulated in 30% (v/v) HPβCD in purified water. Each group included 5 principal male rats as well as 3 satellite animals for toxicokinetics. A fourth group was given 30% (v/v) HPβCD in water only, at the same frequency, dosage volume and by the same route of administration, and acted as the vehicle control group.
Compounds 37 and 176 were tested in this protocol.

hERG channels = target: T1, hERG channels (Homo sapiens, UniProt Q12809); experiment: hERG patch clamp assay, liability for QT prolongation; type: cell-based
T1 construct: expressed in transfected cells
Method: Electrodes were manufactured from GC150TF pipette glass (Harvard), resistance was between 2 and 3 MΩ.
IC50 and IC20 values were calculated for each compound tested. The fold difference between the IC20 and the unbound Cmax concentrations of the test compound obtained at relevant therapeutic doses as determined by results obtained from the rat CIA model was calculated.
For the concentration response curves, peak tail current amplitude was measured during the voltage step to −50 mV.

[2] = tested on: Collagen Induced Arthritis (CIA); experiment: rat CIA model; type: in vivo
Method: Completed Freund's adjuvant (CFA) and incomplete Freund's adjuvant (IFA) were purchased from Difco. Bovine collagen type II (CII), lipopolysaccharide (LPS), and Enbrel were obtained from Chondrex (Isle d'Abeau, France); Sigma (P4252, L'Isle d'Abeau, France), Whyett (25 mg injectable syringe, France) Acros Organics (Palo Alto, Calif.), respectively. All other reagents used were of reagent grade and all solvents were of analytical grade.
Dark Agouti rats (male, 7-8 weeks old) were obtained from Harlan Laboratories (Maison-Alfort, France). Rats were kept on a 12 hours light/dark cycle (0700-1900). The temperature was maintained at 22° C., and food and water were provided ad libitum.
One day before the experiment, CII solution (2 mg/mL) was prepared with 0.05 M acetic acid and stored at 4° C. Just before the immunization, equal volumes of adjuvant (IFA) and CII were mixed by a homogenizer in a pre-cooled glass bottle in an ice water bath. Extra adjuvant and prolonged homogenization might be required if an emulsion is not formed. 0.2 mL of the emulsion was injected intradermally at the base of the tail of each rat on day 1, a second booster intradermal injection (CII solution at 2 mg/mL in CFA 0.1 mL saline) was performed on day 9. This immunization method was modified from published methods (Sims et al, 2004; Jou et al., 2005).
The therapeutic effects of the test compounds were tested in the rat CIA model. Rats were randomly divided into equal groups and each group contained 10 rats. All rats were immunized on day 1 and boosted on day 9. Therapeutic dosing lasted from day 16 to day 30. The negative control group was treated with vehicle (MC 0.5%) and the positive control group with Enbrel (10 mg/kg, 3× week, s.c.). A compound of interest was typically tested at 3 doses, e.g. 3, 10, 30 mg/kg, p.o.
Arthritis was scored according to the method of Khachigian 2006, Lin et al 2007 and Nishida et al. 2004). The swelling of each of the four paws was ranked with the arthritic score as follows: 0—no symptoms; 1—mild, but definite redness and swelling of one type of joint such as the ankle or wrist, or apparent redness and swelling limited to individual digits, regardless of the number of affected digits; 2—moderate redness and swelling of two or more types of joints; 3—severe redness and swelling of the entire paw including digits; 4—maximally inflamed limb with involvement of multiple joints (maximum cumulative clinical arthritis score 16 per animal) (Nishida et al., 2004).
The change in body weight (%) after onset of arthritis was calculated as follows: […]
X-ray photos were taken of the hind paws of each individual animal. […]

T1 sequence (Q12809 whole entry): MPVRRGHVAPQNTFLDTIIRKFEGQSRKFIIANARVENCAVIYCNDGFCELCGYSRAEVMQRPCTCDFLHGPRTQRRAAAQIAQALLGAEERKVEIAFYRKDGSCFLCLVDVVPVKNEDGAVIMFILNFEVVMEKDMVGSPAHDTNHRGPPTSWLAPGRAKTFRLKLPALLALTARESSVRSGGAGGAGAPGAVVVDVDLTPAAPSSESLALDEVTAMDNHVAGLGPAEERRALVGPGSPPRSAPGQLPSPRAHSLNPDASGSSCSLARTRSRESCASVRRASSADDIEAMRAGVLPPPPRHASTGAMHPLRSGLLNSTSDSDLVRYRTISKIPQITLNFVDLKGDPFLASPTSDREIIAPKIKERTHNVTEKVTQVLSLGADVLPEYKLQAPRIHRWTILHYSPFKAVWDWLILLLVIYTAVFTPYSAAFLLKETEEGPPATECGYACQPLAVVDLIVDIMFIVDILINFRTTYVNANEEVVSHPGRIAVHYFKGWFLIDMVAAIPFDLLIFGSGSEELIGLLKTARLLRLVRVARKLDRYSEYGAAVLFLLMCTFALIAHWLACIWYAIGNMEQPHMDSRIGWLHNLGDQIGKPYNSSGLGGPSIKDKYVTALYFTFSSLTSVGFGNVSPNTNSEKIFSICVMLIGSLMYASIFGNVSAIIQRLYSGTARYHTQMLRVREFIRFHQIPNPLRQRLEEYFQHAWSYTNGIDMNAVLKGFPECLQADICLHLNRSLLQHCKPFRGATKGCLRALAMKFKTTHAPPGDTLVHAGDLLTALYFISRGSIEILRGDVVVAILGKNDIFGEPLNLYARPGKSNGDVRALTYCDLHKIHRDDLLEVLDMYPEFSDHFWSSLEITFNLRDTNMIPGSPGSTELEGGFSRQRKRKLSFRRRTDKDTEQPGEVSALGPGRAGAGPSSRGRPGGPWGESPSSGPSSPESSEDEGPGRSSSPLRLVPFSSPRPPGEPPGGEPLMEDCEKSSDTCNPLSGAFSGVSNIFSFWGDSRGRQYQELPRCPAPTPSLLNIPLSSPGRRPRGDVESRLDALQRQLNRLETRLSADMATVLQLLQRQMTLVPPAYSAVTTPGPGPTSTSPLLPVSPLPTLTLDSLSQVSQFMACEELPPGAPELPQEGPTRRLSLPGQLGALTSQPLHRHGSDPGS

EC50 [1]: > 1000 nM
SMILES: CC(=O)Nc1ccc(COc2ccc(-c3cccc4nc(NC(=O)C5CC5)nn34)cc2)cc1 [Compound 92, N-(5-(4-(4-acetamidobenzyloxy)phenyl)-[1,2,4]triazolo[1,5-a]pyridin-2-yl)cyclopropanecarboxamide]

SMILES: O=C(Nc1nc2cccc(-c3ccc(OCc4ccccn4)cc3)n2n1)C1CC1 [Compound 37, N-(5-(4-(pyridin-2-ylmethoxy)phenyl)-[1,2,4]triazolo[1,5-a]pyridin-2-yl)cyclopropanecarboxamide]
NOAEL at 7 day (in vivo): 500 mg/kg | Fold difference between the hERG IC20 and the unbound Cmax (hERG channels; Dose 10 (rat CIA model)): 7 | activity in the rat CIA study ([2]; 10 mg/kg): active

SMILES: N#Cc1ccc(COc2ccc(-c3cccc4nc(NC(=O)C5CC5)nn34)cc2)cn1 [Compound 176, N-(5-(4-((6-cyanopyridin-3-yl)methoxy)phenyl)-[1,2,4]triazolo[1,5-a]pyridin-2-yl)cyclopropanecarboxamide]
NOAEL at 7 day (in vivo): 500 mg/kg | Fold difference between the hERG IC20 and the unbound Cmax (hERG channels; Dose 3 (rat CIA model)): 137 | Fold difference between the hERG IC20 and the unbound Cmax (hERG channels; Dose 10 (rat CIA model)): 82 | potential for QT prolongation (hERG channels; compared to Compound 37): much lower potential QT prolongation issue | EC50 [1]: 1 to 100 nM | clinical score, rat CIA study ([2]; 3 mg/kg): Statistical significance | paw swelling, rat CIA study ([2]; 3 mg/kg): Statistical significance | efficacy in the rat CIA study, all readouts ([2]; rat, p.o., day 16 to day 30): efficacious in all readouts

SMILES: O=C(Nc1nc2cccc(-c3ccc(OCc4cccnc4)cc3)n2n1)C1CC1 [Compound 36, N-(5-(4-(pyridin-3-ylmethoxy)phenyl)-[1,2,4]triazolo[1,5-a]pyridin-2-yl)cyclopropanecarboxamide]
activity in the rat CIA study ([2]; 30 mg/kg): active
